Laboratory results from patent US20140357512A1, “HISTONE DEACETYLASE (HDAC) BIOMARKERS IN MULTIPLE MYELOMA” (priority 2013, published 2014).

Test system: human myeloma cell line MM.1S
Experiment: SILAC acetylated-lysine peptide profiling, HDAC inhibitor vs DMSO (light/heavy ratio)
Type: cell-based
Source text: An embodiment of the invention comprises utilizing the SILAC method in order to quantitate changes in protein expression between two or more populations of cells. The SILAC method is a technique based on mass spectrometry that detects differences in protein abundance among samples using non-radioactive isotopic labeling. The SILAC method is known in the art, and described in detail in Ong et al., “Stable Isotope Labeling by Amino Acids in Cell Culture, SILAC, as a Simple and Accurate Approach to Expression Proteomics”, Molecular & Cellular Proteomics, vol. 1, pp. 376-386 (2002), which is incorporated herein by reference in its entirety.
Briefly, the SILAC method involves growing two populations of cells in cell culture. The first population of cells is grown in growth media containing normal amino acids (“normal media”). The second population of cells is grown in media lacking a standard essential amino acid (such as lysine), but is then supplemented with a non-radioactive, isotopically labeled form of that essential amino acid (such as lysine labeled with ^13C atoms, rather than normal ^12C atoms), which is called “heavy media”. When the two populations of cells are each growing in the medium, they incorporate the amino acids into all of their proteins. The growth of cells maintained in the heavy media is no different from that in normal media. All peptides containing the heavy amino acids are heavier than their normal counterparts. The cells from each of the two populations of cells are lysed. The lysates from each of the two cell populations are then combined. The combined cell lysates are then analyzed by mass spectrometry. Pairs of chemically identical peptides of different stable isotope composition can be differentiated in a mass spectrometer due to their difference in mass. The ratio of peak intensities in the mass spectrum for such peptide pairs reflects the abundance ratio for the two proteins.
This example describes SILAC studies that were performed to compare the effects of three different HDAC inhibitors (Compound A, Compound B, and tubastatin A) to a control on a human multiple myeloma cell line. The HDAC inhibitors were also compared amongst themselves to determine differences in their effects.
A human myeloma cell line MM.1S was grown using either ^12C (light) or ^13C (heavy) lysine containing culture medium. The “heavy” cells were treated with DMSO as the control, and the “light” cells were treated with a single HDAC inhibitor at 37° C. for 6 hours. The heavy and light cells were lysed, and the lysates were mixed in 1:1 ratio and digested with the protease trypsin. The acetylated lysine containing peptides (due to the action of the HDAC inhibitor) in the digested peptide pool were captured by a non-specific anti-acetylated lysine antibody cocktail (the antibodies identify both light and heavy acetylated peptides), and subjected to mass spectrometry analysis in order to identify thousands of individual peptides.
Thousands of peptides were identified in pairs (^12C and ^13C) due to their known mass differences. The amino acid sequence and quantitative ratio (Light/Heavy) of a given peptide in two differentially treated cell lysates were then determined and annotated with their possible protein (gene) sources.
As stated above, three HDAC inhibitors (Compound A, Compound B, and Tubastatin A) were used. Thus, the SILAC method was performed three times, with a different HDAC inhibitor compared to a control each time. Accordingly, there are three pairs of quantitative data in the table below, i.e., Compound A:DMSO, Compound B:DMSO, and Tubastatin A:DMSO. A cut-off of 1.30 fold of change (increase or decrease) was then used to determine “changed” or “+” in the table, and any peptides with a fold of change less than 1.3 fold were determined to be “unchanged” or “0” in the table. Those peptides that were not identified were marked as “NA” in the table. […]

Question: With O=C(CCCCCCNC(=O)c1cnc(N(c2ccccc2)c2ccccc2)nc1)NO [Compound A, 2-(diphenylamino)-N-(7-(hydroxyamino)-7-oxoheptyl)pyrimidine-5-carboxamide] as the compound, how does the “light to heavy ratio (L/H ratio) of acetylated peptide FVVEK(ac)AEQQK (SEQ ID NO: 263)” value (Prohibitin [202], PHB, drug:DMSO) read?
Answer: 0.42 log 2

Question: And the “light to heavy ratio (L/H ratio) of acetylated peptide VYVLK(ac)FK (SEQ ID NO: 520)” value (Proteasomal ubiquitin receptor ADRM1 [97], gene ADRM1, inhibitor:DMSO)?
Answer: −0.50 log 2

Question: What about the “light to heavy ratio (L/H ratio) of acetylated peptide FEYK(ac)YSFK (SEQ ID NO: 340)” value (Protein ERGIC-53 [49], LMAN1, drug:DMSO) of the same compound?
Answer: 0.00 log 2

Question: And the “light to heavy ratio (L/H ratio) of acetylated peptide HFAFK(ac)[…] (SEQ ID NO: 554)” value (Protein FAM3C [72], gene FAM3C, inhibitor:DMSO)?
Answer: 0.40 log 2

Question: And the “light to heavy ratio (L/H ratio), log 2 scale, acetylated peptide […](ac)PTK (SEQ ID NO: 804)” value (Protein Jade-3 [735], gene PHF16, drug:DMSO)?
Answer: 1.00

Question: What about the “light to heavy ratio (L/H ratio), log 2 scale, acetylated peptide IANILK(ac)[…] (SEQ ID NO: 803)” value (Protein disulfide-isomerase A4 [109], gene PDIA4, drug:DMSO) of the same compound?
Answer: 1.00

Question: And the “light to heavy ratio (L/H ratio) of acetylated peptide GYPTIK(ac)FFR (SEQ ID NO: 541)” value (Protein disulfide-isomerase [103], gene P4HB, inhibitor:DMSO)?
Answer: 0.39 log 2

Question: What about the “light to heavy ratio (L/H ratio) of acetylated peptide THILLFLPK(ac)SVSDYDGK (SEQ ID NO: 297)” value (Protein disulfide-isomerase [263], P4HB, drug:DMSO) of the same compound?
Answer: 0.75 log 2

Question: What about the “light to heavy ratio (L/H ratio) of acetylated peptide VLVGK(ac)[…] (SEQ ID NO: 303)” value (Protein disulfide-isomerase [375], P4HB, drug:DMSO) of the same compound?
Answer: 0.99 log 2

Question: What about the “light to heavy ratio (L/H ratio) of acetylated peptide […](ac)K (SEQ ID NO: 286)” value (Protein disulfide-isomerase [385], P4HB, drug:DMSO) of the same compound?
Answer: 0.62 log 2

Question: What about the “light to heavy ratio (L/H ratio), log 2 scale, acetylated peptide VYK(ac)EMYK (SEQ ID NO: 777)” value (Putative annexin A2-like protein [148], gene ANXA2P2, drug:DMSO) of the same compound?
Answer: 1.00

Question: What about the “light to heavy ratio (L/H ratio), log 2 scale, acetylated peptide SVPHLQK(ac)VFDR (SEQ ID NO: 776)” value (Putative annexin A2-like protein [227], gene ANXA2P2, drug:DMSO) of the same compound?
Answer: 1.00

Question: What about the “light to heavy ratio (L/H ratio) of acetylated peptide SEVDMLK(ac)IR (SEQ ID NO: 295)” value (Putative annexin A2-like protein [302], ANXA2P2, drug:DMSO) of the same compound?
Answer: 0.71 log 2

Question: And the “light to heavy ratio (L/H ratio) of acetylated peptide RMELK(ac)ADQLYK (SEQ ID NO: 275)” value (Pyruvate dehydrogenase E1 component subunit alpha testis-specific form mitochondrial [75], PDHA2, drug:DMSO)?
Answer: 0.51 log 2

Question: And the “L/H ratio of acetylated peptide EIDSVK(ac)[…] (SEQ ID NO: 73)” value (RAC2 [153], log 2 scale, drug vs DMSO)?
Answer: 0.00

Question: And the “L/H ratio of acetylated peptide (ac)ADK(ac)[…] (SEQ ID NO: 74)” value (RBBP4 [4], log 2 scale, drug vs DMSO)?
Answer: 0.00

Question: What about the “L/H ratio of acetylated peptide ACFYNLDK(ac)FR (SEQ ID NO: 75)” value (RBM17 [391], log 2 scale, drug vs DMSO) of the same compound?
Answer: 0.00

Question: What about the “L/H ratio of acetylated peptide […](ac)SIPTLISR (SEQ ID NO: 76)” value (RCC1 [366], log 2 scale, drug vs DMSO) of the same compound?
Answer: 0.00

Question: What about the “L/H ratio of acetylated peptide FIDTTSK(ac)FGHGR (SEQ ID NO: 83)” value (RPL3L [373], log 2 scale, drug vs DMSO) of the same compound?
Answer: 0.00

Question: And the “L/H ratio of acetylated peptide LNILK(ac)LAPGGHVGR (SEQ ID NO: 85)” value (RPL4 [239], log 2 scale, drug vs DMSO)?
Answer: 0.00

Question: And the “L/H ratio of acetylated peptide AASLK(ac)SNYNLPMHK (SEQ ID NO: 84)” value (RPL4 [274], log 2 scale, drug vs DMSO)?
Answer: 0.00

Question: And the “L/H ratio of acetylated peptide NFLGEK(ac)YIR (SEQ ID NO: 86)” value (RPL9 [121], log 2 scale, drug vs DMSO)?
Answer: 0.00

Question: And the “L/H ratio of acetylated peptide TGCIGAK(ac)HR (SEQ ID NO: 77)” value (RPL11 [154], log 2 scale, drug vs DMSO)?
Answer: 0.00

Question: And the “L/H ratio of acetylated peptide WFQQK(ac)YDGIILPGK (SEQ ID NO: 78)” value (RPL11 [169], log 2 scale, drug vs DMSO)?
Answer: 0.00

Question: And the “L/H ratio of acetylated peptide […](ac)SR (SEQ ID NO: 79)” value (RPL18A [41], log 2 scale, drug vs DMSO)?
Answer: 0.00

Question: And the “L/H ratio of acetylated peptide IEHIK(ac)HSK (SEQ ID NO: 80)” value (RPL21, SNORD102, SNORA27, RPL21P19 [97], log 2 scale, drug vs DMSO)?
Answer: 0.00

Question: What about the “L/H ratio of acetylated peptide YLK(ac)YLTK (SEQ ID NO: 81)” value (RPL22 [84], log 2 scale, drug vs DMSO) of the same compound?
Answer: 0.00

Question: What about the “L/H ratio of acetylated peptide INFDK(ac)YHPGYFGK (SEQ ID NO: 82)” value (RPL27A [47], log 2 scale, drug vs DMSO) of the same compound?
Answer: 0.00

Question: What about the “L/H ratio of acetylated peptide” value (RPPQTIK(ac)SVR (SEQ ID NO: 492), GDP-D-glucose phosphorylase C15orf58 [113], C15orf58) of the same compound?
Answer: −1.00 log 2

Question: And the “L/H ratio of acetylated peptide LK(ac)[…] (SEQ ID NO: 89)” value (RPS4X [53], log 2 scale, drug vs DMSO)?
Answer: 0.00

Question: What about the “L/H ratio of acetylated peptide SFQK(ac)IQVR (SEQ ID NO: 90)” value (RPS7 [74], log 2 scale, drug vs DMSO) of the same compound?
Answer: 0.00

Question: And the “L/H ratio of acetylated peptide ELLTLDEK(ac)DPR (SEQ ID NO: 91)” value (RPS9 [66], log 2 scale, drug vs DMSO)?
Answer: 0.00

Question: And the “L/H ratio of acetylated peptide LQTQVFK(ac)LGLAK (SEQ ID NO: 92)” value (RPS9 [116], log 2 scale, drug vs DMSO)?
Answer: 0.00

Question: And the “L/H ratio of acetylated peptide […](ac)GK (SEQ ID NO: 87)” value (RPS23 [135], log 2 scale, drug vs DMSO)?
Answer: 0.00

Question: What about the “L/H ratio of acetylated peptide LAVLK(ac)YYK (SEQ ID NO: 88)” value (RPS27A [104], log 2 scale, drug vs DMSO) of the same compound?
Answer: 0.00

Question: What about the “light to heavy ratio (L/H ratio) of acetylated peptide LLNK(ac)HGIK (SEQ ID NO: 528)” value (Ribosomal L1 domain-containing protein 1 [120], gene RSL1D1, inhibitor:DMSO) of the same compound?
Answer: −0.43 log 2
